Source: patent US4983740A, “Process for 1,4-dihydropyridine compounds” (Adir et Compagnie, priority 1986, dated 1991)
One block for each compound: values may come before it.

Legend:
[1] = test system: unanesthetized spontaneously hypertensive rats (SHR); experiment: Study in unanesthetized spontaneously hypertensive rats (intravenous, systolic blood pressure); type: in vivo, rat (SHR); details: for Systolic blood pressure changes (ΔmmHg) after treatment, 1H 30 min / Systolic blood pressure changes (ΔmmHg) after treatment, 3H / Systolic blood pressure changes (ΔmmHg) after treatment, 6H: 0.1 mg/kg, intravenous
Method: Study in Unanesthetized Spontaneously Hypertensive Rats (SHR)
SHR male rats weighing 280 to 350 g and aged from 18 to 24 weeks are anaesthetized with imalgene® (150 mg/kg i.p.). Two polyethylene catheters are introduced, one into the abdominal aorta for the recording of hemodynamic parameters and the other into the jugular vein for the administration of the products. The catheters are taken through to neck level. The animals are used at least 48 hours after surgical intervention.
The systolic and diastolic abdominal bood pressures are recorded by means of a Statham P23XL transducer on a Gould ES 1000 recorder. The products are administered intravenously in a volume of 0.5 ml/kg. The doses administered of the test compounds are expressed in mg/kg of base. The blood pressure is recorded in continuous fashion up to 6 hours after the treatment.
The changes in systolic blood pressure after treatment are recorded in Table VIII.

[2] = test system: conscious dogs with renal hypertension; experiment: Study in conscious dogs with renal hypertension (oral, mean arterial pressure); type: in vivo, dog (Mongol); details: digestive route
From the text: Study in Conscious Dogs with Renal Hypertension
Mongol dogs weighing 20 to 25 kg are used. A Silastic® catheter, inserted under anesthesia at the level of the abdominal aorta, left in position permanently, enables the arterial pressure to be determined subsequently in the conscious animal.
Arterial hypertension is induced by a second operation, under anesthesia, consisting in constricting the left renal artery with a clip, decreasing the flow rate therein by approximately 70%, the left kidney is also covered with a latex capsule in order to restrict circulatory compensations; the contralateral kidney is left in position.
The systolic, diastolic and mean arterial pressures are determined with a Statham® P23 pressure sensor attached to the Silastic® catheter and connected to a Gould® "pressure-processor". The compounds are tested in animals which became hypertensive in the conscious state at least one week after the second operation. The arterial pressure is continuously recorded up to 7 hours after the treatment and then at 24 hours.
The compounds to be tested are administered by the digestive route through gastric tubing, in the form of a solution which may be aqueous, aqueous/alcoholic and the like, depending on the solubility of the products.
The doses administered are expressed in mg base per body weight kg.

rat aorta = experiment: In vitro activity in rat aorta stimulated by potassium ions; type: cell-based, rat (male Wistar); details: 1 h; rat aorta rings, KCl 80 mM stimulation, cumulative doses at 60 minutes intervals
[3] = molecular target: T1, dihydropyridine site associated with the calcium slow channel (Rattus norvegicus, UniProt Q02485); experiment: Affinity for the dihydropyridine binding site, displacement of [3H]-PN 200-110; set-up: species or system rat (Wistar); details: for Ki: displacement of [3H]-PN 200-110, microsomal membranes of rat skeletal muscle
T1 construct: microsomal membrane preparations prepared from skeletal muscle of rat (Wistar) hind limbs; from tissue; host or cells: skeletal muscle of rat (Wistar) hind limbs, microsomal fraction
Method: Affinity for the Dihydropyridine Binding Site
This study was carried out on microsomal membrane preparations prepared from skeletal muscle of rat (Wistar) hind limbs.
The rats are killed by decapitation. The skeletal muscles are removed and washed in buffer I (20 mM MOPS/KOH pH 7.4, 0.3M sucrose, 1 mM EDTA, 0.1 mM iodoacetamide, 1 μM pepstatin A, 1 mg/l leupeptin and 0.1 μM PMSF). The muscles are then mechanically fragmented, taken up in 4 volumes of buffer I per gramme of tissue and homogenized.
The homogenate is then centrifuged for 10 minutes at 3,200 g, the pellets are removed and the supernatants are then centrifuged for 20 minutes at 15,000 g, and the supernatants are stirred for 15 minutes at 4° C. in buffer I containing 0.6M final KCl and then centrifgued for 45 minutes at 70,000 g.
The pellets are taken up in buffer I and homogenized in a Potter. The homogenates are centrifuged at 100,000 g for 45 minutes and the pellets thereby obtained correspond to the microsomal fraction used for the studies of binding and displacement.
The activity of the product is assessed by the displacement of [^3 H]-PN 200-110, bound specifically to its receptor associated with the calcium slow channel, by increasing concentrations of the test products. The value obtained (K0.5) for each of the products, which represents the concentration of the product displacing 50% of the [^3 H]-PN 200-110, permits calculation of a true dissociation constant (KI): [formula] where [L*] is the concentration of free [^3 H]-PN 200-110 and Kd the dissociation constant at equilibrium of the [^3 H]-PN 200-110 complex, determined by direct binding.
The KI values of the two products are recorded in Table VI

[4] = test system: conscious spontaneous hypertensive rats (SHR); experiment: Short-term studies in conscious spontaneous hypertensive rats (oral, systolic arterial pressure); type: in vivo, rat (SHR)
Method: Short-term Studies in Conscious Spontaneous Hypertensive Rats (SHR)
Male spontaneous hypertensive rats weighing 270 to 320 g, aged 16 to 24 weeks, are anesthetized with ether. A polyethylene catheter is introduced into the femoral artery and moved forward to the level of the tail. The pressure in the femoral artery is recorded with a Statham® P23 sensor, on a Gould® 2400 recorder. The animals are treated at least one hour after the operation. The compounds are administered orally, in the dissolved form. The doses administered are expressed in mg/kg of base. The compounds of the invention were compared with amlodipine and with another 1,4-dihydropyridine derivative reference compound, nifedipine.

[5] = test system: conscious spontaneous hypertensive rats (SHR); experiment: Long-term studies in conscious spontaneous hypertensive rats (oral, single daily dose, systolic arterial pressure); type: in vivo, rat (SHR); details: 1 mg/kg/d
Method: Long-term Studies in Conscious Spontaneous Hypertensive rats (SHR) Male rats weighing 280 to 300 g, aged 16 weeks, are used in this study. The systolic arterial pressure is determined with a Rhema multichannel 8,000® apparatus, according to the indirect method, at the tail of the animal. The compounds to be tested are administered orally, in a single daily dose. Determinations of arterial pressure are carried out each day just before the treatment. Amlodipine was also studied under the same conditions.

[6] = molecular target: isolated rabbit mesenteric artery (Oryctolagus cuniculus, UniProt P15381); experiment: Study on isolated rabbit mesenteric artery contracted with calcium; type: cell-based, rabbit (New Zealand); details: compound of example 50 versus its racemate
Method: Study on Isolated Rabbit Mesenteric Artery Contracted with Calcium
This test is performed on organs removed from male New Zealand rabbits weighing 2.5 to 3 kg, subjected to a water regimen for 18 hours before sacrifice.
After the animal is rapidly sacrificed, the mesenteric artery is removed and dissected into rings 2 mm long; the endothelium is removed mechanically.
After a stabilization period of 90 minutes, the preparations are subjected to a depolarizing medium (35 mM KCl) without calcium (0.1 mM EGTA) for 15 minutes.
A control series is prepared by adding cumulative doses of calcium to the bath every 6 minutes until a maximum of effect is produced. The preparations are then rinsed for a period of 15 minutes and the product is incubated for one hour before renewal of the calcium series.
A single concentration of the product is tested per organ.
The responses obtained in the presence of product are expressed as a percentage of the maximal value of the control series.
The pD'2 value is calculated according to the method of Van Rossum (1963).

T1 sequence (Q02485 whole entry): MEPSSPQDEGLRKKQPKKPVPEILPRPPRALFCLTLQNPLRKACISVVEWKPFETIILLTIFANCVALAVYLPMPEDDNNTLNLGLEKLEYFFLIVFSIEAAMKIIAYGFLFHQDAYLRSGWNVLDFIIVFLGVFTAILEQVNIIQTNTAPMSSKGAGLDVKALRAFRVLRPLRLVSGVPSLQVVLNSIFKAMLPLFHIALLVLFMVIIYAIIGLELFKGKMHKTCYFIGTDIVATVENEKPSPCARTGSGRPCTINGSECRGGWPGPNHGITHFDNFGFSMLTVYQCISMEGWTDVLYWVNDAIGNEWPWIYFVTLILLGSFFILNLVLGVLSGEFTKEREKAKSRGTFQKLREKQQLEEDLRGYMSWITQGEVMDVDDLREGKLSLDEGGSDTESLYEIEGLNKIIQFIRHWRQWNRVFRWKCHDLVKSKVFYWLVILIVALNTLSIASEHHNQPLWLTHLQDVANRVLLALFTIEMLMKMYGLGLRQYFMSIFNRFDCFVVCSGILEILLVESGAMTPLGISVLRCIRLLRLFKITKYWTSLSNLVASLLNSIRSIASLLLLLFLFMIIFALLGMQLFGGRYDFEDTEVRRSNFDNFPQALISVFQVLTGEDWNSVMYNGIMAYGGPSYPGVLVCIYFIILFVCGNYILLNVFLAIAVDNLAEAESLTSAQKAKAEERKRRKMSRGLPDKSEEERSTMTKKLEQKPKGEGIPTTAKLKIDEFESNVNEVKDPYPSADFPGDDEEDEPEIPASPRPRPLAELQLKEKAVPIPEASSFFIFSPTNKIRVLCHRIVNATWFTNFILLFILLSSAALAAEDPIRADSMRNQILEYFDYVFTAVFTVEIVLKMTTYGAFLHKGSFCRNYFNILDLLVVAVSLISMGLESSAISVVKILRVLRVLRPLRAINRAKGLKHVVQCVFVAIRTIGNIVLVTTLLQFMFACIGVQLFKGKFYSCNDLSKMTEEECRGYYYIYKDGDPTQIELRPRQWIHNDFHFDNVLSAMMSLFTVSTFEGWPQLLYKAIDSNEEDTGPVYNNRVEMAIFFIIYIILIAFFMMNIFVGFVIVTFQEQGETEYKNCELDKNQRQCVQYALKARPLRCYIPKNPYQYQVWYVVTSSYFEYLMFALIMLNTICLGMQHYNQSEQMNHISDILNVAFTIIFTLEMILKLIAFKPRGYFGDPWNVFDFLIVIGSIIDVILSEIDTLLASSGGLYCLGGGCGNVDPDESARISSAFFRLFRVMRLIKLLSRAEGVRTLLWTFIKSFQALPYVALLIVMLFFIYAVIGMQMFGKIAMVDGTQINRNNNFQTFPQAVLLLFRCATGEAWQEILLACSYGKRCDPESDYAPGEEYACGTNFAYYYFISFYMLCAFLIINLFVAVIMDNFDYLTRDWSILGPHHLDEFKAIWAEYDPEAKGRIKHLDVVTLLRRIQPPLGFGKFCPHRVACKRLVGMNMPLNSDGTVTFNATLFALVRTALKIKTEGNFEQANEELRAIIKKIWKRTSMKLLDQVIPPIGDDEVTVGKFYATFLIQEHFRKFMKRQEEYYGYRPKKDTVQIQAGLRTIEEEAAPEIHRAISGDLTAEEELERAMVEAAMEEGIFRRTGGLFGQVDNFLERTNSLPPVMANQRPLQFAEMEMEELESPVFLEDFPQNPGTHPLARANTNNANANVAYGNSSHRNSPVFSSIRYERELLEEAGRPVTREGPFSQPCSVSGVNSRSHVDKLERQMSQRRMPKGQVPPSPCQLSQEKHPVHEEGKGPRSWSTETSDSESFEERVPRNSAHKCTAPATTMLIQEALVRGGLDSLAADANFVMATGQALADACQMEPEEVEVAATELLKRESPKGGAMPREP
T1 sequence (P54290 25-945 partner limits assumed): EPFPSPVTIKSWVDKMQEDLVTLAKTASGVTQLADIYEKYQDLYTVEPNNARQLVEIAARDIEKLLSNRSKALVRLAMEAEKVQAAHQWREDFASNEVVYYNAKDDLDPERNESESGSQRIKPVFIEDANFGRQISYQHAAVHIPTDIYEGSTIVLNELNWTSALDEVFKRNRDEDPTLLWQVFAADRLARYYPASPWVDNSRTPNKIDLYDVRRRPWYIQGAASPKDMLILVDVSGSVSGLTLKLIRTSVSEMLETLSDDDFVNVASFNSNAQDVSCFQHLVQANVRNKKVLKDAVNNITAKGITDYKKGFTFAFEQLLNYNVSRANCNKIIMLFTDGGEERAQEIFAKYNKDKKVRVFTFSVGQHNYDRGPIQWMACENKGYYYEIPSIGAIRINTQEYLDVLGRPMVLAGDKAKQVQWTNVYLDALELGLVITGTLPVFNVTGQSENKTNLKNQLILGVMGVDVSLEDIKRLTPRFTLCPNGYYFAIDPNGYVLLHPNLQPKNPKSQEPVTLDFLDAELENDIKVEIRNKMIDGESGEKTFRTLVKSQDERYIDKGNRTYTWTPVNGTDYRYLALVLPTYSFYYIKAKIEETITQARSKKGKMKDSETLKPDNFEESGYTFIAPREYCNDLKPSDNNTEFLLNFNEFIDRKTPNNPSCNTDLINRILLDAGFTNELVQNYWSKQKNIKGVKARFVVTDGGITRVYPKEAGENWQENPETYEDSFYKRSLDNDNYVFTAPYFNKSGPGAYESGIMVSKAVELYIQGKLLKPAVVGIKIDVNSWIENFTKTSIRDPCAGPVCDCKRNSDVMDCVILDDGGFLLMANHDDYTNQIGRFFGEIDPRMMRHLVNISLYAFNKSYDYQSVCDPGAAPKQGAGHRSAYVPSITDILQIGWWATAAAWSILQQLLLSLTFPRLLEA
T1 sequence (P54290 946-1091 partner limits assumed): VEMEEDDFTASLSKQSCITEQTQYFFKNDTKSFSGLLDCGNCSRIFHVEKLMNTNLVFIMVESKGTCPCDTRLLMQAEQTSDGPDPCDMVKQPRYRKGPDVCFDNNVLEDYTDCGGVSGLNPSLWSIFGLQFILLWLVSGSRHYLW
T1 sequence (P54283 whole entry partner): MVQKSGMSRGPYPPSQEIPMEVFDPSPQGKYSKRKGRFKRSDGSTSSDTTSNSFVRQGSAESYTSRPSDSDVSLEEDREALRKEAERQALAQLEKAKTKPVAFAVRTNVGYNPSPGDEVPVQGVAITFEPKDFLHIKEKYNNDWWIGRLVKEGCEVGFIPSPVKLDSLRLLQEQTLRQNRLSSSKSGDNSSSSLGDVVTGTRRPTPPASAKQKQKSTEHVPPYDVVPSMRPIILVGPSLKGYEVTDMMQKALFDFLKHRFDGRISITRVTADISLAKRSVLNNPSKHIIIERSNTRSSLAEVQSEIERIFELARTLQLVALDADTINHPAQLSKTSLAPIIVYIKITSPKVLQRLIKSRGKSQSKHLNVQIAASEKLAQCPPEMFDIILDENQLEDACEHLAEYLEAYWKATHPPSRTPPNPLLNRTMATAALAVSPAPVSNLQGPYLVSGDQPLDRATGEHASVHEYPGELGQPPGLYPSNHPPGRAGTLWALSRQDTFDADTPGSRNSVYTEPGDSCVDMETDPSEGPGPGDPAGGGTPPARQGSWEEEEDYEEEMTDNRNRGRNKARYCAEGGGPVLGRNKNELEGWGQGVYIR
T1 sequence (P97707 whole entry partner): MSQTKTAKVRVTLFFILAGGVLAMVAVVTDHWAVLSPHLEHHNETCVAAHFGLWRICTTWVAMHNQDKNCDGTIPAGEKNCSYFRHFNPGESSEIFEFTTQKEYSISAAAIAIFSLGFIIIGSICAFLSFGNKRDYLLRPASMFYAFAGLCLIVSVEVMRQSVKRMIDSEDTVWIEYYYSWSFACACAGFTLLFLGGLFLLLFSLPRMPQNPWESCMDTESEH

IC50 (rat aorta): 5 nM | Ki [3]: 8.2 ± 1.7 nM
SMILES: CCOC(=O)C1=C(COCCOCCN)NC(C)=C(C(=O)OC)C1c1cccc(Cl)c1Cl (racemic) [EXAMPLE 6, (4R,S)-2-{[2-(2-Aminoethoxy)ethoxy]methyl}-4-(2,3-dichlorophenyl)-3-ethoxycarbonyl-5-methoxycarbonyl-6-methyl-1,4-dihydropyridine]
Systolic blood pressure changes (ΔmmHg) after treatment, 1H 30 min [1]: -11 ± 3 mmHg | Systolic blood pressure changes (ΔmmHg) after treatment, 3H [1]: -5 ± 3 mmHg | Systolic blood pressure changes (ΔmmHg) after treatment, 6H [1]: -5 ± 2 mmHg | Mean arterial pressure after treatment, Δ mm Hg, 4 h ([2]; 0.5 mg/kg): -20 mm Hg | Mean arterial pressure after treatment, Δ mm Hg, 7 h ([2]; 0.5 mg/kg): -29 mm Hg | Mean arterial pressure after treatment, Δ mm Hg, 24 h ([2]; 0.5 mg/kg): -11 mm Hg | Mean arterial pressure after treatment, Δ mm Hg, 4 h ([2]; 1.0 mg/kg): -40 mm Hg | Mean arterial pressure after treatment, Δ mm Hg, 7 h ([2]; 1.0 mg/kg): -44 mm Hg | Mean arterial pressure after treatment, Δ mm Hg, 24 h ([2]; 1.0 mg/kg): -49 mm Hg | Systolic arterial pressure after treatment, Δ mm Hg, 4 h ([4]; 1 mg/kg): -14 mm Hg | Systolic arterial pressure after treatment, Δ mm Hg, 6 h ([4]; 1 mg/kg): -17 mm Hg | Systolic arterial pressure after treatment, Δ mm Hg, 24 h ([4]; 1 mg/kg): -17 mm Hg | Systolic arterial pressure after treatment, Δ mm Hg, 4 h ([4]; 3 mg/kg): -52 mm Hg | Systolic arterial pressure after treatment, Δ mm Hg, 6 h ([4]; 3 mg/kg): -55 mm Hg | Systolic arterial pressure after treatment, Δ mm Hg, 24 h ([4]; 3 mg/kg): -36 mm Hg | Systolic arterial pressure Δ(mm Hg) 24 h after the last administration of the products, D1 ([5]; day 1): -22 mm Hg | Systolic arterial pressure Δ(mm Hg) 24 h after the last administration of the products, D2 ([5]; day 2): -18 mm Hg | Systolic arterial pressure Δ(mm Hg) 24 h after the last administration of the products, D4 ([5]; day 4): -17 mm Hg | Systolic arterial pressure Δ(mm Hg) 24 h after the last administration of the products, D7 ([5]; day 7): -31 mm Hg

affinity for the dihydropyridine sites compared with its racemate ([3]; compound of example 50 versus its racemate): 30 times | Ki [3]: 0.28 ± 0.15 nM | superiority compared with its racemate in preventing a calcium-induced vascular contraction [6]: more than double
SMILES: CCOC(=O)C1=C(COCCOCCN)NC(C)=C(C(=O)OC)C1c1cccc(Cl)c1Cl (single isomer, unassigned; (-)) [EXAMPLE 50, (-)-2-{[2-(2-Aminoethoxy)ethoxy]methyl}-4-(2,3-dichlorophenyl)-3-ethoxycarbonyl-5-methoxycarbonyl-6-methyl-1,4-dihydropyridine]
Systolic blood pressure changes (ΔmmHg) after treatment, 1H 30 min [1]: -16 ± 2 mmHg | Systolic blood pressure changes (ΔmmHg) after treatment, 3H [1]: -18 ± 2 mmHg | Systolic blood pressure changes (ΔmmHg) after treatment, 6H [1]: -21 ± 5 mmHg | activity compared with its racemate six hours after treatment ([1]; same dose, six hours after treatment, versus racemate): approximately 4 times | activity compared with its racemate, in words ([1]; versus racemate): more potent and sustained even better over a period of time
